Structures can show the parent of a compound that is named as a salt.
Legend:
Format in all cases: in vivo, human
[1] = system: patients with facial acne vulgaris; assay: Post-PDT erythema from patient journal (Phase II study)
Experimental: A clinical Phase II study involving 23 males and 20 females (age 18 years or more) with facial acne vulgaris (papulo-pustular acne and at least 15 inflammatory acne lesions on at least one side of the face) has been performed. Patients were randomized to receive either MAL cream on the face at a concentration of 160 mg/g (16% wt), 80 mg/g (8% wt) or 40 mg/g (4% wt). The cream was administered under occlusion. […] A light dose of 37 J/cm^2 using Photocure's Aktilite 128 LED light source was provided at a working distance between 5 and 8 cm. The average time to deliver said light dose was about 8 minutes. This information was derived from the journal kept by patients. […] There is a significant difference among the 6 groups in the duration of post PDT erythema (p=0.03). […] In fact, all patients in the standard PDT treatment group experienced post-PDT erythema.

[2] = system: patients with facial acne vulgaris; assay: Adverse events subsequent to light exposure (Phase II study)
Experimental: A clinical Phase II study involving 23 males and 20 females (age 18 years or more) with facial acne vulgaris (papulo-pustular acne and at least 15 inflammatory acne lesions on at least one side of the face) has been performed. Patients were randomized to receive either MAL cream on the face at a concentration of 160 mg/g (16% wt), 80 mg/g (8% wt) or 40 mg/g (4% wt). The cream was administered under occlusion. […] A light dose of 37 J/cm^2 using Photocure's Aktilite 128 LED light source was provided at a working distance between 5 and 8 cm. The average time to deliver said light dose was about 8 minutes. Safety was evaluated by medical questionnaire and adverse events, i.e., side effects, reporting. Additional data relating to the adverse events, i.e., side effects, observed subsequent to light exposure during the study are shown in the table below. For patients who received the standard PDT treatment, i.e., patients in the 3 h after MAL (160 mg/g) group, not only a larger number of adverse events were observed than for the patients in any of the other groups, but the adverse events were also more severe in nature, i.e., higher numbers of moderate and severe adverse events (AEs) were observed.

[3] = system: patients with facial acne vulgaris; assay: Pain during light exposure and post-PDT pain, visual analog scale (Phase II study); details: for Pain during light exposure, Mean: visual analog scale 0-100
Experimental: A clinical Phase II study involving 23 males and 20 females (age 18 years or more) with facial acne vulgaris (papulo-pustular acne and at least 15 inflammatory acne lesions on at least one side of the face) has been performed. Patients were randomized to receive either MAL cream on the face at a concentration of 160 mg/g (16% wt), 80 mg/g (8% wt) or 40 mg/g (4% wt). The cream was administered under occlusion. […] A light dose of 37 J/cm^2 using Photocure's Aktilite 128 LED light source was provided at a working distance between 5 and 8 cm. The average time to deliver said light dose was about 8 minutes. Safety was evaluated by medical questionnaire and adverse events, i.e., side effects, reporting. Mean pain during light exposure was evaluated by patients on a visual analog scale where 0=no pain and 100=worst possible pain.

[4] = 3 h, 160 mg/g (standard PDT), 7 patients
[5] = 160 mg/g 3 h and 80 mg/g 1.5 h groups together

## COC(=O)CCC(=O)CN [MAL, methylaminolevulinate hydrochloride]
[1]; 40 mg/g for 1 hour
  Mean duration of erythema (shortest): 0.5 days
[1]; 160 mg/g for 3 hours
  Mean duration of erythema (longest): 14 days
[1]; MAL cream 40 mg/g, 1 h
  Duration of post PDT erythema, Mean: 4 days
[1]; MAL cream 40 mg/g, 1 h, 8 patients in group
  n: number of patients experiencing post-PDT erythema: 4
[1]; MAL cream 40 mg/g, 1.5 h
  Duration of post PDT erythema, Mean: 1.8 days
[1]; MAL cream 40 mg/g, 1.5 h, 8 patients in group
  n: number of patients experiencing post-PDT erythema: 6
[1]; MAL cream 80 mg/g, 0.5 h, 6 patients in group
  n: number of patients experiencing post-PDT erythema: 0
[1]; MAL cream 80 mg/g, 1 h
  Duration of post PDT erythema, Mean: 2.1 days
[1]; MAL cream 80 mg/g, 1 h, 8 patients in group
  n: number of patients experiencing post-PDT erythema: 5
[1]; MAL cream 80 mg/g, 1.5 h
  Duration of post PDT erythema, Mean: 3.7 days
[1]; MAL cream 80 mg/g, 1.5 h, 6 patients in group
  n: number of patients experiencing post-PDT erythema: 3
[1]; MAL cream 160 mg/g, 3 h (standard PDT)
  Duration of post PDT erythema, Mean: 11.9 days
[1]; MAL cream 160 mg/g, 3 h (standard PDT), 7 patients in group
  n: number of patients experiencing post-PDT erythema: 7
[1]; standard PDT treatment group (160 mg/g, 3 h)
  Patients experiencing post-PDT erythema: all patients
[2]; 0.5 h, 80 mg/g
  Mild AEs Per Pat: 0.6
  Moderate AEs Per Pat: 0
  Severe AEs Per Pat: 0
  Total AEs Per Pat: 0.667
[2]; 0.5 h, 80 mg/g, 6 patients
  Mild AEs: 4
  Moderate AEs: 0
  Severe AEs: 0
  Total AEs: 4
[2]; 1 h, 40 mg/g
  Mild AEs Per Pat: 1.125
  Moderate AEs Per Pat: 0
  Severe AEs Per Pat: 0
  Total AEs Per Pat: 1.125
[2]; 1 h, 40 mg/g, 8 patients
  Mild AEs: 9
  Moderate AEs: 0
  Severe AEs: 0
  Total AEs: 9
[2]; 1 h, 80 mg/g
  Mild AEs Per Pat: 1.375
  Moderate AEs Per Pat: 0
  Severe AEs Per Pat: 0
  Total AEs Per Pat: 1.375
[2]; 1 h, 80 mg/g, 8 patients
  Mild AEs: 11
  Moderate AEs: 0
  Severe AEs: 0
  Total AEs: 11
[2]; 1.5 h, 40 mg/g
  Mild AEs Per Pat: 2
  Moderate AEs Per Pat: 0.125
  Severe AEs Per Pat: 0
  Total AEs Per Pat: 2.125
[2]; 1.5 h, 40 mg/g, 8 patients
  Mild AEs: 16
  Moderate AEs: 1
  Severe AEs: 0
  Total AEs: 17
[2]; 1.5 h, 80 mg/g
  Mild AEs Per Pat: 1.5
  Moderate AEs Per Pat: 0.167
  Severe AEs Per Pat: 0.167
  Total AEs Per Pat: 1.833
[2]; 1.5 h, 80 mg/g, 6 patients
  Mild AEs: 9
  Moderate AEs: 1
  Severe AEs: 1
  Total AEs: 11
[2]; 3 h, 160 mg/g (standard PDT)
  Mild AEs Per Pat: 2.14
  Moderate AEs Per Pat: 1
  Severe AEs Per Pat: 0.429
  Total AEs Per Pat: 3.571
[2]; [4]
  Mild AEs: 15
  Moderate AEs: 7
  Severe AEs: 3
  Total AEs: 25
[2]; standard PDT treatment, 3 h after MAL (160 mg/g), did not occur with any other treatment modality
  Cracked skin with bleeding: one patient
[3]; [5]
  Patients in whom light delivery had to be ended because of pain: 2 patients
  Patients in whom light delivery had to be interrupted because of pain: 2 patients
[3]; 0.5 h after MAL (80 mg/g)
  Patients experiencing post-PDT pain: 1 out of 6
[3]; MAL cream 40 mg/g, 1 h before red light 37 J/cm^2
  Pain during light exposure, Mean: 2
[3]; MAL cream 40 mg/g, 1.5 h before red light 37 J/cm^2
  Pain during light exposure, Mean: 19
[3]; MAL cream 80 mg/g, 0.5 h before red light 37 J/cm^2
  Pain during light exposure, Mean: 1
[3]; MAL cream 80 mg/g, 1 h before red light 37 J/cm^2
  Pain during light exposure, Mean: 9
[3]; MAL cream 80 mg/g, 1.5 h before red light 37 J/cm^2
  Pain during light exposure, Mean: 32
[3]; MAL cream 160 mg/g, 3 h before red light 37 J/cm^2 (standard PDT)
  Pain during light exposure, Mean: 64
[3]; all other groups (40 mg/g 1 h and 1.5 h; 80 mg/g 1 h and 1.5 h)
  Patients experiencing post-PDT pain: zero
[3]; standard PDT group (160 mg/g, 3 h)
  Patients experiencing post-PDT pain: 5 out of 7

From patent US10543272B2, “Use of aminolevulinic acid and derivatives thereof” (Photocure ASA, priority 2007, dated 2020)
